SMILES strings stand for the structures. Where a name gives a salt, the structure may show the parent alone. Some results are limits rather than exact numbers.

A short description of series [1]: NMR 13C-isotopomer profiling of TCA extracts of paired non-cancerous and cancerous lung tissues. The settings on record: for relative 13C abundance (HSQC peak volume normalized to total succinate concentration): patients #6-10; for % enrichment: human, in vivo. As to the method:
Lung cancer patients were recruited based on the criteria of surgical eligibility and no history of diabetes. Each patient was consented in accordance with the U.S. HIPAA regulations. The following patient protocol was approved by the Internal Review Board at the University of Louisville. Ten grams uniformly ^13C labeled glucose ([U-^13C]-Glc or ^13C6-Glc or ^13C6-Glucose) in sterile saline solution were infused i.v. over a 30 min time period into each patient in the pre-op room approximately 3 or 12 hr prior to resection. Whole blood samples were collected into a vacutainer containing the anticoagulant K3EDTA or K3-EDTA before and after [U-^13C]-Glc infusion as well as after the surgery. Additional blood samples were collected 3 and 12 hr after the [U-^13C]-Glc infusion for the 12 hr treatment cases. […] The blood samples were placed on ice immediately after collection and centrifuged at 4° C. at 3,500×g for 15 min to recover the plasma fraction. All blood samples were aliquoted and flash-frozen in liquid N2 within 30 min of collection. Potassium EDTA was used as an anti-coagulant to minimize metabolic artifacts associated with anti-coagulation; it also served to remove the influence of interfering cations such as paramagnetic Fe^3+ and Cu^2+ for NMR analysis.
All timings from first incision to cutting arteries and veins to the lung were recorded so that the period of ischemia could be determined immediately after tissue resection, excess blood was blotted from the tissue, and small pieces of non-cancerous and tumor tissue were cut by the surgeon and freeze-clamped in liquid N2 within 5 minutes of removal from the chest cavity. The freezing process arrested metabolic changes almost instantaneously. […] Non-cancerous tissue was removed at least 2 cm from the tumor margin and certified to be tumor-free by trained pathologists. Subsequent pathological evaluation also confirmed tumor status and provided the tumor stage. All samples were stored at −80° C. until further processing for analysis.
Frozen tissue samples were pulverized into <10 μm particles in liquid N2 using a Spex freezer mill (Spex CertiPrep, Inc., Metuchen, N.J.) to maximize efficiency for subsequent extraction while maintaining biochemical integrity. An aliquot of the frozen powder was lyophilized before extraction for metabolites.
Water-soluble or polar metabolites were extracted from lyophilized tissue powders (4-48 mg) in ice-cold 10% trichloroacetic acid (TCA) (v/w minimum 40/1) while leaving proteins, nucleic acids, and polysaccharides behind, as described previously (Kim et al. Antioxidants & Redox Signaling 2001, 3:361-373). The extraction was performed twice for quantitative recovery. An aliquot (150 μl) of plasma samples were made to final 10% TCA concentration to precipitate proteins and recover metabolites in the supernatant. TCA was then removed from tissue or plasma extracts by lyophilization. The dry pellet was dissolved in nanopure water and two small aliquots were lyophilized for silylation and GC-MS analysis while the remaining bulk was passed through a Chelex 100 resin column (Bio-Rad Laboratories, Inc., Hercules, Calif.) to neutralize and remove interfering multivalent cations for NMR analysis.
The ^1H reference standard, DSS (2,2-Dimethyl-2-silapentane-5-sulfonate sodium salt) was added (30 or 50 nmoles) to the TCA extracts of tissue or plasma samples, respectively. […]

Series [2] can be described thus: Isotopic enrichment in SCID mouse tissue lactate and glucose by 1D 1H NMR. Particulars: SCID, mouse, in vivo, 15 min. Type of series: in vivo. As to the method: A 20% solution of glucose in normal saline was sterile-filtered. 100 μL of this solution, or a 1:10 dilution (2%) were injected into the tail vein of a restrained mouse without anesthesia.
Mice were sacrificed at different times post glucose injection, and the following organs were dissected sequentially: lung, heart, liver, kidney, brain, spleen, and thigh muscle. Dissected tissue was flash frozen in liquid N2 within 1 minute of killing the animal.
Frozen tissues were ground in liquid N2 to <10 μm particles in a 6750 Freezer/Mill (Retsch, Inc., Newtown, Pa.) and extracted for soluble and lipidic metabolites as follows. Up to 20 mg of frozen tissue powder in 15 ml polypropylene conical centrifuge tube (Sarstedt, Newton, N.C.) containing 3 mm diameter glass beads was vigorously mixed with 2 ml of cold acetonitrile (mass spectrometry grade, stored at −20° C.) to denature proteins, followed by addition of 1.5 ml nanopure water, and 1 ml HPLC-grade chloroform (Fisher Scientific). The mixture was shaken vigorously until achieving a milky consistency followed by centrifugation at 3,000 g for 20 minutes at 4° C. to separate the polar (top), lipidic (bottom), and tissue debris layers (interface). The polar and lipidic layers were recovered sequentially and the remaining cell debris was extracted again with 0.5 ml chloroform:methanol:butylated hydroxytoluene (BHT) (2:1:1 mM) which was pooled with the lipidic fraction. All three fractions were vacuum-dried in a speedvac device (Vacufuge, Eppendorf, New York, N.Y.) and/or by lyophylization. The dry weight of tissue debris was obtained for normalization of metabolite content. The polar extracts were redissolved in 100% D2O containing 30 nmol perdeuterated DSS (2,2-dimethyl-2-silapentane-5-sulfonate, Cambridge Isotope Laboratories, Andover, Mass.) as internal chemical shift and concentration reference for NMR measurement.
NMR spectra were recorded at 14.1 T on a Varian Inova spectrometer equipped with a 5 mm inverse triple resonance cold probe, at 20° C. 1D NMR spectra were recorded with an acquisition time of 2 s and a recycle time of 5 sec. Concentrations of metabolites and ^13C incorporation were determined by peak integration of the ^1H NMR spectra referenced to the DSS methyl groups, with correction for differential relaxation, as previously described (See, Lane et al. (2008) Biophysical Tools for Biologists. 84: 541-588; Fan et al. (2008) Progress in NMR Spectroscopy 52: 69-117; Lane et al. (2007) Metabolomics 3: 79-86.). ^1H Spectra were typically processed with zero filling to 131 k points, and apodized with an unshifted Gaussian and a 0.5 Hz line broadening exponential.
The same extracts from FIG. 9 were analyzed by NMR to complement the GC-MS analysis. The ^13C enrichment into glucose/glucose-6-phosphate and lactate was determined by 1D ^1H NMR. The enrichments at 15 and 30 minutes post infusion were substantial in all tissues, and peak lactate enrichments differed according to the metabolic activity or glucose uptake rates of the different tissues (Table 7).
Lac measured at C3, G1c measured at C1α by NMR

A short description of series [3]: GC-MS quantification of total and 13C-enriched metabolites in paired normal and cancerous lung tissues.
Where [4] appears, read: patient #6 (sqC, grade II), cancer tissue.
Where [5] appears, read: patient #6 (sqC, grade II), normal tissue.
Where [6] appears, read: patient #7 (adenoC, grade II), cancer tissue.
Setting [7] is: patient #7 (adenoC, grade II), normal tissue.
Where [8] appears, read: patient #8 (sqC, grade II-III), cancer tissue.
Setting [9] is: patient #8 (sqC, grade II-III), normal tissue.
[10] abbreviates: patient #9 (sqC, grade II), cancer tissue.
Where [11] appears, read: patient #9 (sqC, grade II), normal tissue.
The mark [12] stands for this setting: patient #10 (sqC, grade III), cancer tissue.
[13] abbreviates: patient #10 (sqC, grade III), normal tissue.

`O=C(O)[13CH2][13CH2]C(=O)O` [C-2,3-succinate]: the “relative 13C abundance (HSQC peak volume normalized to total succinate concentration)” value is reported as 0.6±0.7 in series [1] (non-cancerous tissues) and 3.6±1.2 in series [1] (tumor tissues).
Turning to `C[C@H](N)C(=O)O` [Total Ala, alanine], in series [2], the “% 13C isotopic enrichment in tissue” value is reported as 16%. The “% enrichment” value in series [1] is no more than 15%. For the same compound, the “metabolite content of lung tissue” value was found to be 15.76 μmole/g dry weight in series [3] (setting [4]); 4.67 μmole/g dry weight in series [3] (setting [5]); 6.44 μmole/g dry weight in series [3] (setting [6]); 6.25 μmole/g dry weight in series [3] (setting [7]); 9.28 μmole/g dry weight in series [3] (setting [8]); 4.97 μmole/g dry weight in series [3] (setting [9]). The “metabolite content of lung tissue” value in series [3] (setting [10]) is on record as 15.08 μmole/g dry weight; in series [3] (setting [11]), 5.14 μmole/g dry weight; in series [3] (setting [12]) it was 27.34 μmole/g dry weight; in series [3] (setting [13]) it was 5.42 μmole/g dry weight.
`N[C@@H](CC(=O)O)C(=O)O` [Total Asp, aspartate]: the “% enrichment” value in series [1] is recorded as less than 8%. For the same compound, the “metabolite content of lung tissue” value in series [3] (setting [4]) was found to be 4.27 μmole/g dry weight; in series [3] (setting [5]), 1.32 μmole/g dry weight; in series [3] (setting [6]), 3.09 μmole/g dry weight; in series [3] (setting [7]), 3.83 μmole/g dry weight; in series [3] (setting [8]), 1.51 μmole/g dry weight; in series [3] (setting [9]), 2.67 μmole/g dry weight. The “metabolite content of lung tissue” value in series [3] (setting [10]) amounted to 4.78 μmole/g dry weight; in series [3] (setting [11]) it was 1.94 μmole/g dry weight; in series [3] (setting [12]), 1.66 μmole/g dry weight; in series [3] (setting [13]) it was 2.27 μmole/g dry weight.
Regarding `O=C(O)CC(O)(CC(=O)O)C(=O)O` [Total Cit, citrate], the “metabolite content of lung tissue” value is 1.32 μmole/g dry weight in series [3] (setting [4]); 0.60 μmole/g dry weight in series [3] (setting [5]); 1.18 μmole/g dry weight in series [3] (setting [6]); 1.21 μmole/g dry weight in series [3] (setting [7]); 1.56 μmole/g dry weight in series [3] (setting [8]); 1.28 μmole/g dry weight in series [3] (setting [9]). In addition, the “metabolite content of lung tissue” value in series [3] (setting [10]) was determined as 1.53 μmole/g dry weight; in series [3] (setting [11]), 0.77 μmole/g dry weight; in series [3] (setting [12]), 1.37 μmole/g dry weight; in series [3] (setting [13]), 0.74 μmole/g dry weight.
For `NC(=O)CC[C@H](N)C(=O)O` [Total Gln, glutamine], the “metabolite content of lung tissue” value in series [3] (setting [4]) turned out to be 7.68 μmole/g dry weight; in series [3] (setting [5]) it was 0.56 μmole/g dry weight; in series [3] (setting [6]), 1.02 μmole/g dry weight; in series [3] (setting [7]), 1.41 μmole/g dry weight; in series [3] (setting [8]), 1.32 μmole/g dry weight; in series [3] (setting [9]), 0.64 μmole/g dry weight. In addition, the “metabolite content of lung tissue” value in series [3] (setting [10]) is 2.71 μmole/g dry weight; in series [3] (setting [11]), 0.74 μmole/g dry weight; in series [3] (setting [12]), 2.99 μmole/g dry weight; in series [3] (setting [13]), 0.79 μmole/g dry weight.
Turning to `N[C@@H](CCC(=O)O)C(=O)O` [Total Glu, glutamate], the “metabolite content of lung tissue” value is 4.80 μmole/g dry weight in series [3] (setting [4]); 0.24 μmole/g dry weight in series [3] (setting [5]); 2.97 μmole/g dry weight in series [3] (setting [6]); 2.96 μmole/g dry weight in series [3] (setting [7]); 3.25 μmole/g dry weight in series [3] (setting [8]); 1.88 μmole/g dry weight in series [3] (setting [9]). Further, the “metabolite content of lung tissue” value in series [3] (setting [10]) worked out at 4.78 μmole/g dry weight; in series [3] (setting [11]), 1.91 μmole/g dry weight; in series [3] (setting [12]) it was 3.28 μmole/g dry weight; in series [3] (setting [13]) it was 1.82 μmole/g dry weight.
As to `O=C(O)CCC(=O)O` [Total Succ, succinate], the “metabolite content of lung tissue” value stood at 1.34 μmole/g dry weight in series [3] (setting [4]); 0.17 μmole/g dry weight in series [3] (setting [5]); 0.70 μmole/g dry weight in series [3] (setting [6]); 0.50 μmole/g dry weight in series [3] (setting [7]); 1.84 μmole/g dry weight in series [3] (setting [8]); 0.89 μmole/g dry weight in series [3] (setting [9]). The “metabolite content of lung tissue” value in series [3] (setting [10]) was 1.59 μmole/g dry weight; in series [3] (setting [11]), 0.64 μmole/g dry weight; in series [3] (setting [12]), 3.13 μmole/g dry weight; in series [3] (setting [13]), 1.14 μmole/g dry weight.
